Measurements taken from ChEMBL document CHEMBL4376860, “Discovery of Novel Dual Poly(ADP-ribose)polymerase and Phosphoinositide 3-Kinase Inhibitors as a Promising Strategy for Cancer Therapy” (J Med Chem, 2020).

What was measured:
[1] = target: Poly [ADP-ribose] polymerase 1 (Homo sapiens, UniProt P09874); assay: Inhibition of recombinant human PARP1 using histone as substrate after 1 hr in presence of biotinylated NAD+ by ELISA
[2] = target: Phosphatidylinositol 4,5-bisphosphate 3-kinase catalytic subunit alpha isoform (Homo sapiens, UniProt P42336); assay: Inhibition of PI3Kalpha (unknown origin) using PIP2 as substrate measured after 1 hr by ADP-glo plus luminescence assay
Sequence of Phosphatidylinositol 4,5-bisphosphate 3-kinase catalytic subunit alpha isoform (P42336 whole entry, canonical isoform): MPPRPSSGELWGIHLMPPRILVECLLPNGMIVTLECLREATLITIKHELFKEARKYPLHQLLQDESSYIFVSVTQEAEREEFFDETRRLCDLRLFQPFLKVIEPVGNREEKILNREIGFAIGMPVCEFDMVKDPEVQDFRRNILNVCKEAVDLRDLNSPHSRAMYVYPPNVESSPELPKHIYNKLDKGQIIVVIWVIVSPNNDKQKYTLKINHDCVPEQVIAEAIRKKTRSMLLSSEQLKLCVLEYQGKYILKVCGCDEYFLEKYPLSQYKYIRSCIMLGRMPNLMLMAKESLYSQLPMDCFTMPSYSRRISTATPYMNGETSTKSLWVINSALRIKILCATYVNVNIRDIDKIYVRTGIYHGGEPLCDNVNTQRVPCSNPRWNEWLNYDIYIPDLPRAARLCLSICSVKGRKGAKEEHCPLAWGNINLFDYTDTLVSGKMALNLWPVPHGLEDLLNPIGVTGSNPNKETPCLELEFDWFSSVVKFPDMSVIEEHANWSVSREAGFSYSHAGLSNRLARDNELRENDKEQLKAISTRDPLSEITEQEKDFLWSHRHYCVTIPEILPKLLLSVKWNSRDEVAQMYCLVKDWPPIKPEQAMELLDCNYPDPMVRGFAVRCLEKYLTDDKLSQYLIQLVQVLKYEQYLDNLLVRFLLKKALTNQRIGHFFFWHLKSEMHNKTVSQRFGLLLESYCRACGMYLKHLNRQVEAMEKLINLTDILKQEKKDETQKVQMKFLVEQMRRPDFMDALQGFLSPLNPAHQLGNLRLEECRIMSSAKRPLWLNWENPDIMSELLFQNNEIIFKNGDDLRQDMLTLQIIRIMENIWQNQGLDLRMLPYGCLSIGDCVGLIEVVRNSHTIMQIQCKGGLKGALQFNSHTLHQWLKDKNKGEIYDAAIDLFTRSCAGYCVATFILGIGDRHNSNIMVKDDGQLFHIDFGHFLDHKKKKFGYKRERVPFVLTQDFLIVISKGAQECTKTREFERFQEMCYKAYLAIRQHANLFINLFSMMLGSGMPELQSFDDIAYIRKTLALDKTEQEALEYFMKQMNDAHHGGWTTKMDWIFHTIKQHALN

[3] = organism: Homo sapiens; assay: Selectivity ratio of IC50 for recombinant human PARP1 to IC50 for PI3Kalpha (unknown origin)

Sequence of Poly [ADP-ribose] polymerase 1 (P09874 whole entry, canonical isoform): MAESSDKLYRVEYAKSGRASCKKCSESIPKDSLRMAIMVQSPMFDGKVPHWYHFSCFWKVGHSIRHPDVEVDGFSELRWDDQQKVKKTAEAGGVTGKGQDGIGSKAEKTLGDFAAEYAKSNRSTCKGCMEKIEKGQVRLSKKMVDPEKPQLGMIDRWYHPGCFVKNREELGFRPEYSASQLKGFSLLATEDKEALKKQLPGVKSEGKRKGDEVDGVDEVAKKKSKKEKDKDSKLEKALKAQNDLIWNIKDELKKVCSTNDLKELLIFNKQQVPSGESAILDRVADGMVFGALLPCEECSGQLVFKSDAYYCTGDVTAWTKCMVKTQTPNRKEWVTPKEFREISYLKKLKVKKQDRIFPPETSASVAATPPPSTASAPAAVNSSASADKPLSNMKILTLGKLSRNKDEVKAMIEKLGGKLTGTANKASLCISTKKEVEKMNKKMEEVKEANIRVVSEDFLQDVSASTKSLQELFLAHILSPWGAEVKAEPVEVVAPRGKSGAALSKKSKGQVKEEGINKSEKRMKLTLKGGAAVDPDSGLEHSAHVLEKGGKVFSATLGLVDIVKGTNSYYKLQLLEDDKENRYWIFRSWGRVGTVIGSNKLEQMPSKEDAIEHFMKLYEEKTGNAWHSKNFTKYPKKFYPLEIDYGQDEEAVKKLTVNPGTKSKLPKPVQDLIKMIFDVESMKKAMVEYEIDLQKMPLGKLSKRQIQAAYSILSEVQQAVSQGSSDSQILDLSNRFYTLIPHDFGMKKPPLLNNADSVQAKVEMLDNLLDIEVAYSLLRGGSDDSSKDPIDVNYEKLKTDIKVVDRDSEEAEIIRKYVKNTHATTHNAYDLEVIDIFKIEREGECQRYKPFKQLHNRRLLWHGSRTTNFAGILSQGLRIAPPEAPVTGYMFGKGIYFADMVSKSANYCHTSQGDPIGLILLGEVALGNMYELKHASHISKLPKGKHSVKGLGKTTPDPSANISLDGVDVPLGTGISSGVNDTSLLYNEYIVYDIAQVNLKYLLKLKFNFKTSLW

Row | Structure (SMILES) | IC50 [1] [nM] | IC50 [2] [nM] | Ratio IC50 [3]
1 | Nc1ccc(-c2nc(N3CCOCC3)nc(N3CCN(C(=O)c4cc(Cc5n[nH]c(=O)c6ccccc56)ccc4F)CC3)n2)c(F)c1 | 0.724 | 708 | –
2 | Nc1cc(-c2nc(N3CCOCC3)nc(N3CCN(C(=O)c4cc(Cc5n[nH]c(=O)c6ccccc56)ccc4F)CC3)n2)ccc1F | 1.1 | 2290 | –
3 | Nc1ccc(-c2nc(N3CCOCC3)nc(N3CCN(C(=O)c4cc(Cc5n[nH]c(=O)c6ccccc56)ccc4F)CC3)n2)cn1 | 1.07 | 132 | –
4 | Nc1ccc(-c2nc3c(c(N4CCOCC4)n2)CCN(C(=O)c2cc(Cc4n[nH]c(=O)c5ccccc45)ccc2F)C3)cn1 | 7.94 | 30.2 | –

Results, then the compound that gave them:

Row | IC50 [1] [nM] | IC50 [2] [nM] | Ratio IC50 [3] | Structure (SMILES)
5 | 0.692 | 692 | – | O=C(c1cc(Cc2n[nH]c(=O)c3ccccc23)ccc1F)N1CCN(c2nc(-c3ccc4[nH]ccc4c3)nc(N3CCOCC3)n2)CC1
6 | 0.676 | > 10000 | – | O=C(c1cc(Cc2n[nH]c(=O)c3ccccc23)ccc1F)N1CCN(c2nc(-c3ccc4cn[nH]c4c3)nc(N3CCOCC3)n2)CC1
7 | 0.832 | 91.2 | 120 | Nc1ncc(-c2nc(N3CCOCC3)nc(N3CCN(C(=O)c4cc(Cc5n[nH]c(=O)c6ccccc56)ccc4F)CC3)n2)cn1
8 | 1.12 | 1200 | – | Nc1ncc(-c2nc(N3CCOCC3)nc(N3CCN(C(=O)c4cc(Cc5n[nH]c(=O)c6ccccc56)ccc4F)CC3)n2)cc1C(F)(F)F
9 | 6.17 | 44.7 | – | O=C(c1cc(Cc2n[nH]c(=O)c3ccccc23)ccc1F)N1CCc2c(nc(-c3cccc4[nH]ncc34)nc2N2CCOCC2)C1
